Structures can show the parent of a compound that is named as a salt.
Test: collision cross section in nitrogen (drift tube, single-field); higher = larger gas-phase ion size
[1] = ion type: [M+Na], ion source: ESI, ion mode: Positive
[2] = ion type: [M+H], ion source: APCI, ion mode: Positive
[3] = ion type: [M+H], ion source: ESI, ion mode: Positive
[4] = ion type: [M-H], ion source: ESI, ion mode: Negative
[5] = ion source: APCI, ion mode: Positive, ion type: [M]+ (permanent cation)
[6] = ion source: ESI, ion mode: Positive, ion type: [M]+ (permanent cation)
[7] = ion type: [M+], ion source: APCI, ion mode: Positive
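Further: chemical standards at 10 µM analysed by drift tube IMS-QTOF MS in about 3.95 torr nitrogen, mean of duplicate injections differing ≤1%, mass error below 10 ppm.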

SMILES | collision cross section in nitrogen [2] | collision cross section in nitrogen [3] | collision cross section in nitrogen [4] | collision cross section in nitrogen [1] | other results
CC(C)CCCCCCOC(=O)C1CCCCC1C(=O)OCCCCCCC(C)C (stereo not drawn) [Diisononyl cyclohexane-1,2-dicarboxylate] |  |  |  | 220.8 Å² | 
C=CC(=O)OCC(CO)(COC(=O)C=C)COC(=O)C=C [Pentaerythritol triacrylate] |  |  |  | 165.1 Å² | 
O=C1NC(=O)C(c2ccccc2)(c2ccccc2)N1 [Diphenylhydantoin sodium] |  |  | 160.6 Å² |  | 
Cc1ccccc1C(=O)Nc1cccc(OC(C)C)c1 [Mepronil] | 169.9 Å² | 169.4 Å² | 172.6 Å² | 180.1 Å² | 
CCCCCCCCCCCC[N+](C)(C)Cc1ccccc1 [Benzalkonium chloride C12 (BAC C12)] |  |  |  |  | collision cross section in nitrogen [5]: 193 Å²; collision cross section in nitrogen [6]: 193.9 Å²
CCCCCCCCCCC=CC1CC(=O)OC1=O (stereo not drawn) [3-(Dodecenyl)dihydro-2,5-furandione] |  |  | 170.1 Å² |  | 
O=C(NC(=O)c1c(F)cccc1F)Nc1ccc(Oc2ccc(C(F)(F)F)cc2Cl)cc1F [Flufenoxuron] |  |  | 215.8 Å² |  | 
CCN(C(=O)c1cc(C)cc(OC[C@H](C)Nc2ccncc2)c1)C(C)C | 186.4 Å² | 186.4 Å² |  | 194.8 Å² | 
CCCCCCCCCCCCCCCC[N+](C)(C)C [Hexadecyltrimethylammonium bromide] |  |  |  |  | collision cross section in nitrogen [5]: 193.1 Å²; collision cross section in nitrogen [6]: 195.1 Å²
COCCOCCOCCO [2-[2-(2-Methoxyethoxy)ethoxy]ethanol] |  |  |  | 135.6 Å² | 
O=C1OC(=O)c2c(Cl)c(Cl)c(Cl)c(Cl)c21 [Tetrachlorophthalic anhydride] |  |  | 158.1 Å² |  | 
CCN(CCC#N)c1ccccc1 [3-[Ethyl(phenyl)amino]propanenitrile] | 138.5 Å² | 139.3 Å² |  |  | 
O=C1CC2(CCCC2)CC(=O)N1CCCCN1CCN(c2ncccn2)CC1 [Buspirone] | 199.2 Å² | 199.2 Å² | 202.9 Å² | 201.6 Å² | collision cross section in nitrogen [7]: 196.8 Å²
CC(C)(c1ccccc1)c1ccc(O)c(C(C)(C)c2ccccc2)c1 [2,4-Bis(1-methyl-1-phenylethyl)phenol] |  | 171.9 Å² | 187.8 Å² |  | 
O=S(=O)(O)c1cc(Nc2nc(Nc3ccccc3)nc(N(CCO)CCO)n2)ccc1C=Cc1ccc(Nc2nc(Nc3ccccc3)nc(N(CCO)CCO)n2)cc1S(=O)(=O)O [C.I. Fluorescent Brightener 28, disodium salt] |  | 307.5 Å² | 282.8 Å² |  | 
O=C1OC2(c3ccccc31)c1cc(Br)c(O)c(Br)c1Oc1c2cc(Br)c(O)c1Br [Eosin] |  |  | 207.8 Å² |  | 
CC(C)[N+](C)(CCOC(=O)C1c2ccccc2Oc2ccccc21)C(C)C [Propantheline bromide] |  |  |  |  | collision cross section in nitrogen [6]: 184.1 Å²
CCOP(=O)(SC(C)CC)N1CCSC1=O (stereo not drawn) [Fosthiazate] |  |  |  | 168.2 Å² | 
CCCc1c(OCCCOc2ccc(OCC(=O)O)cc2)ccc(C(C)=O)c1O |  | 186.1 Å² | 190.5 Å² | 191.7 Å² | 
Oc1c(Br)cc(Br)cc1Br [2,4,6-Tribromophenol] |  |  | 135.2 Å² |  | 
COc1ccc2c(c1)[C@]13CCCC[C@@H]1[C@H](C2)N(C)CC3 [Dextromethorphan hydrobromide] | 166.1 Å² | 166.7 Å² |  |  | 
CCCCc1ccc(N)cc1 [4-Butylaniline] |  | 149.8 Å² |  |  | 
CCCCSP(=O)(SCCCC)SCCCC [Tribufos] | 177.5 Å² | 177.2 Å² |  | 194.4 Å² | 

SMILES | collision cross section in nitrogen [2] | collision cross section in nitrogen [3] | collision cross section in nitrogen [4] | collision cross section in nitrogen [1] | other results
C[As+](C)(C)CC(=O)[O-] [Arsenobetaine] |  | 118 Å² |  |  | 
CNC(=O)N(C)c1nc2ccccc2s1 [Methabenzthiazuron] | 144.2 Å² | 144.7 Å² |  |  | 
CCOP(=O)(NC(C)C)Oc1ccc(S(C)(=O)=O)c(C)c1 (stereo not drawn) [Fenamiphos sulfone] | 182.4 Å² | 180.3 Å² | 176.7 Å² | 181.5 Å² | 
CCOP(=O)(OCC)OC(=CCl)c1ccc(Cl)cc1Cl [Chlorfenvinphos] | 168.7 Å² | 170.1 Å² |  | 181 Å² | 
CC(C)c1c(C(=O)Nc2ccccc2)c(-c2ccccc2)c(-c2ccc(F)cc2)n1CC[C@@H](O)C[C@@H](O)CC(=O)O [Atorvastatin] | 229.1 Å² | 229.7 Å² | 228.4 Å² | 231.4 Å² | 
CC(CCC(=O)O)(c1ccc(O)cc1)c1ccc(O)cc1 [4,4-Bis(4-hydroxyphenyl)valeric acid] |  |  | 177.5 Å² |  | 
CCN(CC)CCNC(=O)c1c(C)[nH]c(/C=C2\C(=O)Nc3ccc(F)cc32)c1C [Sunitinib malate] |  | 207 Å² |  | 214.3 Å² | 
CSC(C)=NOC(=O)N(C)SN(C)C(=O)ON=C(C)SC [Thiodicarb] |  |  |  | 190.7 Å² | 
C[N+](C)(C)CC1CO1 (stereo not drawn) [Glycidyl trimethylammonium chloride] |  |  |  |  | collision cross section in nitrogen [6]: 120.7 Å²
CSc1nnc(C(C)(C)C)c(=O)n1N [Metribuzin] | 146.7 Å² | 148.4 Å² | 148.3 Å² |  | 
Cc1ccccc1CO[C@@H]1C[C@@]2(C(C)C)CC[C@]1(C)O2 [Cinmethylin] |  |  |  | 169.7 Å² | 
Cc1cccc(N)n1 [6-Methylpyridin-2-amine] | 118.6 Å² | 119.5 Å² |  |  | 
CCOP(=O)(CN(CCO)CCO)OCC [Diethyl (N,N-bis(2-hydroxyethyl)amino)methanephosphonate] | 153.5 Å² | 153.9 Å² | 157.5 Å² | 156.5 Å² | 
CCN(CC)c1nc(C)cc(OP(=S)(OC)OC)n1 [Pirimiphos-methyl] | 165.5 Å² | 167.9 Å² |  |  | 
COCCOCCOCCOC [Triethylene glycol dimethyl ether] |  |  |  | 138.1 Å² | 
O=C(O)C1(c2ccc3c(c2)OC[C@H](Cc2ccc(-c4ccccc4)cc2)[C@H]3O)CCCC1 |  |  |  | 202.9 Å² | 
CC(C)CCCCCCCOC(=O)c1ccccc1C(=O)OCCCCCCCC(C)C [Diisodecyl phthalate] |  |  |  | 226.5 Å² | 
CCC(C)OC(=O)N1CCCCC1CCO (stereo not drawn) [Icaridin] |  |  |  | 166.5 Å² | 
CCC(C)(c1ccc(O)cc1)c1ccc(O)cc1 [Bisphenol B] |  |  | 165.8 Å² |  | 
CCCCCCCCc1ccc(Nc2ccc(CCCCCCCC)cc2)cc1 [4,4'-Dioctyldiphenylamine] | 218.8 Å² | 219.9 Å² | 221 Å² |  | collision cross section in nitrogen [7]: 219.4 Å²
CCCCC(CC)COC(=O)c1ccccc1C(=O)O (stereo not drawn) [Mono(2-ethylhexyl) phthalate] |  |  | 169.2 Å² | 182.1 Å² | 
CN(c1nccc(=O)[nH]1)C1CCN(c2nc3ccccc3n2Cc2ccc(F)cc2)CC1 [Mizolastine] | 204.1 Å² | 203.7 Å² | 204.5 Å² | 209.6 Å² | 
CC(=O)O[C@H](CC(=O)[O-])C[N+](C)(C)C [Acetyl-L-carnitine hydrochloride] |  | 143.9 Å² |  |  | 

The next lines start with results.

collision cross section in nitrogen [2] | collision cross section in nitrogen [3] | collision cross section in nitrogen [4] | SMILES | collision cross section in nitrogen [1] | other results
120.7 Å² | 122.2 Å² | 118.9 Å² | c1ccc2[nH]nnc2c1 [1,2,3-Benzotriazole] |  | 
176.9 Å² |  |  | N=C(N)c1ccc(OCCCCCOc2ccc(C(=N)N)cc2)cc1 [Pentamidine] |  | 
 | 146.7 Å² | 142.4 Å² | O=S(=O)(O)c1ccc(O)c2ncccc12 [8-Hydroxyquinoline-5-sulfonic acid hydrate (1:x)] |  | 
211.7 Å² | 211.4 Å² | 217.9 Å² | O=C1OC2(c3ccccc31)c1cc(I)c(O)c(I)c1Oc1c2cc(I)c(O)c1I [FD&C Red 3] |  | 
140.8 Å² | 141.1 Å² |  | c1ccc(CCCc2ccccn2)cc1 [2-(3-Phenylpropyl)pyridine] |  | 
 |  | 148.8 Å² | CC(C)=CCCC(C)CC(=O)O (stereo not drawn) [Citronellic acid] |  | 
 | 142.8 Å² |  | N#CCCN(CCO)c1ccccc1 [N-Cyanoethyl-hydroxyethyl aniline] |  | 
 |  | 134.5 Å² | Nc1ccc(S(=O)(=O)O)cc1 [4-Aminobenzenesulfonic acid] |  | 
 |  | 137 Å² | CCCC(CCC)C(=O)O [Sodium valproate] |  | 
 |  | 182 Å² | O=S1(=O)OC(c2ccc(O)cc2)(c2ccc(O)cc2)c2ccccc21 [Phenol red] |  | 
 |  | 142.9 Å² | Oc1ccccc1Cc1ccccc1O [2,2′-Methylenebis[phenol]] |  | 
231.8 Å² | 230.6 Å² | 233.1 Å² | COc1ccc(S(=O)(=O)N2C(=O)[C@@](c3ccccc3OC)(N3C[C@H](O)C[C@H]3C(=O)N(C)C)c3cc(Cl)ccc32)c(OC)c1 [Nelivaptan] | 233.3 Å² | 
 |  | 138.6 Å² | CCCC(C)c1ccccc1O (stereo not drawn) [2-(1-Methylbutyl)phenol] |  | 
153.1 Å² | 153.2 Å² |  | CCOc1ccc2c(c1)C(C)=CC(C)(C)N2 [Ethoxyquin] |  | 
131.8 Å² | 131.6 Å² |  | c1cnc2c(c1)ccc1cccnc12 [1,10-Phenanthroline hydrochloride hydrate] | 145.7 Å² | 
139.1 Å² | 139.6 Å² |  | COc1cc(OC)c2ccc(=O)oc2c1 [5,7-Dimethoxy-2H-chromen-2-one] |  | 

From the supplement of paper PMC12317010
